The nature of data set [1]: Selectivity index, ratio of IC50 for rat L6 cells to IC50 for Plasmodium falciparum NF54. It is filed as toxicity. Particulars: read-out: Ratio IC50.
The test system of data set [2] is Trypanosoma brucei rhodesiense. As to the kind of experiment: Trypanocidal activity against Trypanosoma brucei rhodesiense STIB900 trypomastigotes incubated for 72 hrs by Alamar blue assay. It is filed as functional, organism-based. Particulars: STIB900, 72 h. (In general: The colour change of resazurin is a common sign of viable cells or microbes.)
Data set [3] is described as follows: Selectivity index, ratio of IC50 for rat L6 cells to IC50 for Trypanosoma brucei rhodesiense STIB900 trypomastigotes. It is filed as toxicity. Particulars: read-out: Ratio IC50.
The next data set deals with L6. Description: Cytotoxicity against rat L6 cells. It is filed as cell-based.
Data set [4] deals with Mycolicibacterium smegmatis. Description: Antimycobacterial activity against Mycobacterium smegmatis mc2 155 ATCC 700084 assessed as inhibition of visible growth of bacteria by MTT assay. It is filed as functional. (Formazan colour is commonly taken as a measure of viable cells.)
A further data set concerns Plasmodium falciparum. As to the kind of experiment: Antiplasmodial activity against Plasmodium falciparum NF54 erythrocytic stages assessed as parasite growth inhibition preincubated overnight followed by [G-3H]hypoxanthine addition and measured after 24 hrs by liquid scintillation counting method. It is filed as functional, organism-based.
Data set [5] deals with Mycolicibacterium smegmatis. Description: Antimycobacterial activity against Mycobacterium smegmatis mc2 155 ATCC 700084 assessed as fold reduction in EtBr MIC at half MIC concentration. It is filed as functional.

Values after ≈ are worked out from the molar mass of the structure shown.

By MIC is commonly meant the lowest concentration found to suppress growth.

For `O=C1C=C(c2ccccc2)C(=O)c2ccccc21`, the selectivity ratio in data set [1] was 1.8; in data set [3], 323. The IC50 in data set [2] (read-out: IC50) is 0.06 µM; in data set [2] (read-out: pIC50 (converted)), 0.055 µM; in the data set with L6 it was 19.4 µM; with Plasmodium falciparum (read-out: IC50), 11 µM; with Plasmodium falciparum (read-out: pIC50 (converted)), 11 µM. Also, the MIC in data set [4] was determined as 8 µg/mL (≈ 34.2 µM). Further, in data set [5], the “fold change (FC)” value was found to be 4.

On to `Cc1ccc(C2=CC(=O)c3ccccc3C2=O)cc1`, for which the selectivity ratio in data set [1] stood at 1.9; in data set [3], 90.8. The IC50 was 0.08 µM in data set [2] (read-out: IC50); 0.0759 µM in data set [2] (read-out: pIC50 (converted)); 7.26 µM with L6; 3.86 µM in the data set on Plasmodium falciparum (read-out: IC50); 3.89 µM with Plasmodium falciparum (read-out: pIC50 (converted)). For the same compound, the MIC in data set [4] was 32 µg/mL (≈ 129 µM). In addition, in data set [5], the “fold change (FC)” value came out at 2.

For the compound `O=C1C=C(c2ccc(Cl)nc2)C(=O)c2ccccc21`, the selectivity ratio in data set [1] amounted to 463; in data set [3], 14.7. Also, the IC50 in data set [2] (read-out: IC50) was 2.2 µM; in data set [2] (read-out: pIC50 (converted)) it was 2.19 µM; with L6, 32.4 µM; with Plasmodium falciparum (read-out: IC50), 0.07 µM; with Plasmodium falciparum (read-out: pIC50 (converted)), 0.0661 µM. For the same compound, the MIC in data set [4] is 32 µg/mL (≈ 119 µM). For the same compound, the “fold change (FC)” value in data set [5] is listed as 128.

With `O=C1C=C(c2ccc(F)cc2)C(=O)c2ccccc21`, the results for the selectivity ratio in data set [1] and in data set [3] were 5 and 41.2, respectively. Further, the IC50 in data set [2] (read-out: IC50) was 0.22 µM; in data set [2] (read-out: pIC50 (converted)), 0.219 µM; in the data set on L6, 9.06 µM; in the data set on Plasmodium falciparum (read-out: IC50), 1.81 µM; in the data set on Plasmodium falciparum (read-out: pIC50 (converted)) it was 1.82 µM. In addition, in data set [4], the MIC worked out at 128 µg/mL (≈ 507 µM). Besides, the “fold change (FC)” value in data set [5] is >128.

With `N#Cc1ccc(C2=CC(=O)c3ccccc3C2=O)cc1`, the figures for the selectivity ratio in data set [1] and in data set [3] were 6.5 and 25.8, respectively. Moreover, the IC50 in data set [2] (read-out: IC50) is 0.28 µM; in data set [2] (read-out: pIC50 (converted)), 0.275 µM; in the data set on L6 it was 7.21 µM; in the data set with Plasmodium falciparum (read-out: IC50), 1.11 µM; with Plasmodium falciparum (read-out: pIC50 (converted)) it was 1.1 µM. The MIC in data set [4] worked out at 64 µg/mL (≈ 247 µM). Also, the “fold change (FC)” value in data set [5] is listed as >128.

Turning to `O=C1C=C(c2cc(F)cc(F)c2)C(=O)c2ccccc21`, the selectivity ratio was determined as 16.4 in data set [1] and 40.3 in data set [3]. In addition, the IC50 in data set [2] (read-out: IC50) was 0.24 µM; in data set [2] (read-out: pIC50 (converted)), 0.24 µM; in the data set on L6, 9.67 µM; in the data set with Plasmodium falciparum (read-out: IC50) it was 0.59 µM; with Plasmodium falciparum (read-out: pIC50 (converted)) it was 0.589 µM. Besides, the minimal inhibitory concentration (MIC) in data set [4] is > 128 µg/mL. Moreover, the “fold change (FC)” value in data set [5] was found to be 4.

As for `O=C1C=C(c2cnc3ccccc3c2)C(=O)c2ccccc21`, the values for the selectivity ratio in data set [1] and in data set [3] were 12.5 and 25.6, respectively. Further, the IC50 in data set [2] (read-out: IC50) is 0.22 µM; in data set [2] (read-out: pIC50 (converted)), 0.224 µM; in the data set on L6, 5.64 µM; with Plasmodium falciparum (read-out: IC50), 0.45 µM; in the data set with Plasmodium falciparum (read-out: pIC50 (converted)), 0.447 µM. Further, the minimum inhibitory concentration (MIC) in data set [4] was 8 µg/mL (≈ 28 µM). For the same compound, the “fold change (FC)” value in data set [5] was determined as 8.

Take `CS(=O)(=O)Nc1cccc(C2=CC(=O)c3ccccc3C2=O)c1`: the selectivity ratio came to 3.6 in data set [1] and 46.3 in data set [3]. Further, the IC50 in data set [2] (read-out: IC50) is 0.2 µM; in data set [2] (read-out: pIC50 (converted)), 0.2 µM; in the data set on L6 it was 9.25 µM; in the data set on Plasmodium falciparum (read-out: IC50), 2.56 µM; in the data set on Plasmodium falciparum (read-out: pIC50 (converted)), 2.57 µM. In addition, the minimum inhibitory concentration (MIC) in data set [4] was > 128 µg/mL. In addition, in data set [5], the “fold change (FC)” value was 128.

On to `O=C1C=C(c2ccc(Cl)cc2)C(=O)c2ccccc21`, for which the selectivity ratio in data set [1] came to 3.4; in data set [3] it was 40.7. For the same compound, the IC50 is 0.22 µM in data set [2] (read-out: IC50); 0.224 µM in data set [2] (read-out: pIC50 (converted)); 8.96 µM in the data set with L6; 2.64 µM in the data set with Plasmodium falciparum (read-out: IC50); 2.63 µM in the data set with Plasmodium falciparum (read-out: pIC50 (converted)). Also, the MIC in data set [4] was 16 µg/mL (≈ 59.5 µM). In addition, the “fold change (FC)” value in data set [5] is reported as >128.

For the compound `O=C1C=C(c2cnc(Cl)nc2)C(=O)c2ccccc21`, the selectivity ratio amounted to 2.2 in data set [1] and 7.8 in data set [3]. Moreover, the IC50 in data set [2] (read-out: IC50) is 0.13 µM; in data set [2] (read-out: pIC50 (converted)), 0.129 µM; in the data set with L6, 1.02 µM; with Plasmodium falciparum (read-out: IC50), 0.47 µM; in the data set with Plasmodium falciparum (read-out: pIC50 (converted)), 0.468 µM. The MIC in data set [4] came out at 4 µg/mL (≈ 14.8 µM). For the same compound, in data set [5], the “fold change (FC)” value amounted to 2.

As to `O=C1C=C(c2cc3ccccc3o2)C(=O)c2ccccc21`, the results for the selectivity ratio in data set [1] and in data set [3] were 8.4 and 154, respectively. The IC50 is 1.36 µM in data set [2] (read-out: IC50); 1.35 µM in data set [2] (read-out: pIC50 (converted)); 209 µM with L6; 25 µM in the data set on Plasmodium falciparum (read-out: IC50); 25.1 µM with Plasmodium falciparum (read-out: pIC50 (converted)). The minimal inhibitory concentration (MIC) in data set [4] is > 128 µg/mL. Moreover, the “fold change (FC)” value in data set [5] came to 2.

On to `O=C1C=C(c2ccc(F)nc2)C(=O)c2ccccc21`, for which the values for the selectivity ratio in data set [1] and in data set [3] were 19.1 and 15, respectively. For the same compound, the IC50 in data set [2] (read-out: IC50) was 0.14 µM; in data set [2] (read-out: pIC50 (converted)), 0.138 µM; with L6, 2.1 µM; in the data set with Plasmodium falciparum (read-out: IC50), 0.11 µM; in the data set with Plasmodium falciparum (read-out: pIC50 (converted)), 0.115 µM. The MIC in data set [4] came out at 16 µg/mL (≈ 63.2 µM). In addition, the “fold change (FC)” value in data set [5] was >128.

As to `O=C1C=C(c2ccc(C(=O)N3CCCCC3)cc2)C(=O)c2ccccc21`, the selectivity ratio was 4.1 in data set [1] and 12.9 in data set [3]. Moreover, the IC50 was 0.75 µM in data set [2] (read-out: IC50); 0.741 µM in data set [2] (read-out: pIC50 (converted)); 9.71 µM in the data set on L6; 2.37 µM with Plasmodium falciparum (read-out: IC50); 2.34 µM in the data set on Plasmodium falciparum (read-out: pIC50 (converted)). For the same compound, the MIC in data set [4] worked out at 32 µg/mL (≈ 92.6 µM). Besides, in data set [5], the “fold change (FC)” value came out at 8.

Turning to `O=C1C=C(c2ccc(C(F)(F)F)cc2)C(=O)c2ccccc21`, the selectivity ratio in data set [1] came out at 14; in data set [3], 189. Besides, the IC50 in data set [2] (read-out: IC50) is 0.08 µM; in data set [2] (read-out: pIC50 (converted)), 0.0759 µM; with L6, 15.1 µM; in the data set on Plasmodium falciparum (read-out: IC50), 1.08 µM; with Plasmodium falciparum (read-out: pIC50 (converted)), 1.07 µM. Also, in data set [4], the minimal inhibitory concentration (MIC) stood at 128 µg/mL (≈ 423 µM). Further, the “fold change (FC)” value in data set [5] is reported as 4.

For `CC(C)c1ccc(C2=CC(=O)c3ccccc3C2=O)cc1`, the selectivity ratio turned out to be 6.9 in data set [1] and 14.1 in data set [3]. Besides, the IC50 in data set [2] (read-out: IC50) is 1.45 µM; in data set [2] (read-out: pIC50 (converted)), 1.45 µM; with L6 it was 20.4 µM; in the data set with Plasmodium falciparum (read-out: IC50) it was 2.96 µM; in the data set with Plasmodium falciparum (read-out: pIC50 (converted)) it was 2.95 µM. Also, the MIC in data set [4] worked out at 64 µg/mL (≈ 232 µM). For the same compound, in data set [5], the “fold change (FC)” value is listed as 4.

In the case of `O=C1C=C(c2ccco2)C(=O)c2ccccc21`, the selectivity ratio amounted to 3.6 in data set [1] and 57.2 in data set [3]. In addition, the IC50 was 0.13 µM in data set [2] (read-out: IC50); 0.129 µM in data set [2] (read-out: pIC50 (converted)); 7.44 µM in the data set with L6; 2.07 µM with Plasmodium falciparum (read-out: IC50); 2.09 µM in the data set with Plasmodium falciparum (read-out: pIC50 (converted)). Also, in data set [4], the minimal inhibitory concentration (MIC) was 128 µg/mL (≈ 571 µM). Moreover, in data set [5], the “fold change (FC)” value was determined as 2.

`O=C1C=C(c2cccc(OC(F)(F)F)c2)C(=O)c2ccccc21`: the selectivity ratio in data set [1] turned out to be 26.1; in data set [3], 12.9. Besides, the IC50 in data set [2] (read-out: IC50) was 1.8 µM; in data set [2] (read-out: pIC50 (converted)) it was 1.78 µM; in the data set on L6, 23.2 µM; in the data set on Plasmodium falciparum (read-out: IC50), 0.89 µM; with Plasmodium falciparum (read-out: pIC50 (converted)), 0.891 µM. Further, the MIC in data set [4] stood at 64 µg/mL (≈ 201 µM). In data set [5], the “fold change (FC)” value amounted to 128.

Take `O=C1C=C(c2ccc(OC(F)(F)F)cc2)C(=O)c2ccccc21`: the selectivity ratio in data set [1] came to 4.3; in data set [3], 7. For the same compound, the IC50 is 2.36 µM in data set [2] (read-out: IC50); 2.34 µM in data set [2] (read-out: pIC50 (converted)); 16.6 µM in the data set on L6; 3.87 µM with Plasmodium falciparum (read-out: IC50); 3.89 µM in the data set with Plasmodium falciparum (read-out: pIC50 (converted)). In addition, the minimal inhibitory concentration (MIC) in data set [4] worked out at 16 µg/mL (≈ 50.3 µM). Also, the “fold change (FC)” value in data set [5] turned out to be 128.

For the compound `CC[n+]1c(-c2ccccc2)c2cc(N)ccc2c2ccc(N)cc21.[Br-]` [HOMIDIUM BROMIDE], the MIC in data set [4] came to 8 µg/mL.

Consider `NNC(=O)c1ccncc1` [ISONIAZID], for which the minimum inhibitory concentration (MIC) in data set [4] was determined as 4 µg/mL (≈ 29.2 µM).

Compound `COc1cc([C@@H]2c3cc4c(cc3[C@H](O)[C@H]3COC(=O)[C@H]23)OCO4)cc(OC)c1OC` [PODOFILOX] registered an IC50 in the data set with L6 of 0.024 µM.

(Values after ChEMBL document CHEMBL4765460, “Palladium-catalysed synthesis of arylnaphthoquinones as antiprotozoal and antimycobacterial agents” (Eur J Med Chem, 2020).)
